# Molecular target: T1, hTopo I (Homo sapiens, UniProt P11387)
# T1 construct: purchased TopoGEN
# T1 sequence (P11387 1-765): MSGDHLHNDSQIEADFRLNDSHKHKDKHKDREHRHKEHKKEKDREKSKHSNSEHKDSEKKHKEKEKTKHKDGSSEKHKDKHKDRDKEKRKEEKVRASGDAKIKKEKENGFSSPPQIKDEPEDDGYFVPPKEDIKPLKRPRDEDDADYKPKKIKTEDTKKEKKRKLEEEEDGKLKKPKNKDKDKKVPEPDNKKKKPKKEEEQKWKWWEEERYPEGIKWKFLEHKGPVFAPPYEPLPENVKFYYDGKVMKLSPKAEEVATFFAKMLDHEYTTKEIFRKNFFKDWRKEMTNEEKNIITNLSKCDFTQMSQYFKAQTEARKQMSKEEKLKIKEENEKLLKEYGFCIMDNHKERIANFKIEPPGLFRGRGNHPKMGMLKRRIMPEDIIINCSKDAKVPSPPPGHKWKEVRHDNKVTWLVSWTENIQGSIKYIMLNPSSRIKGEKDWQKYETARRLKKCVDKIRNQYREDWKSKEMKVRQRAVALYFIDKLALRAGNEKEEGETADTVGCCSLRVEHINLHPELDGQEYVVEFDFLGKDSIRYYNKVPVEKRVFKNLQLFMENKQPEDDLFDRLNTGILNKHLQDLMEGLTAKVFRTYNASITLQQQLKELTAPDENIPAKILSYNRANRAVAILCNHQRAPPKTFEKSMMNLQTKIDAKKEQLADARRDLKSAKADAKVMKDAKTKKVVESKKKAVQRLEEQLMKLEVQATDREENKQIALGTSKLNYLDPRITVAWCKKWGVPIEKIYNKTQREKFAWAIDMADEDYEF
# Test: hTopo I relaxation assay
# Type: biochemical
# Settings: compound at 1 μM, pHOT1 plasmid, agarose gel
# Protocol: Indeed, as shown in Figure 3a (lanes 3 and 4), a clear band of the uncut plasmid DNA at the bottom of the gel is present. The uncut plasmid pHOT1, used as marker, is present in Figure 3a, lane 1. On the contrary, in the control reaction (only vehicle, Figure 3a, lane 2), it is possible to observe the presence of multiple bands corresponding to the relaxed plasmid DNA, used as substrate.
# hTopo I relaxation assays were performed as indicated in the manufacturer’s protocol (TopoGEN, Port Orange, FL, USA) with some revisions. hTopo I relaxation assays were performed in a final volume of 20 μL: 0.25 μg of supercoiled pHOT1 in TE buffer [TE: 10 mM Tris-HCl (pH 7.5), 1 mM EDTA] was added to a solution containing water, 1× assay buffer (10 mM Tris-HCl (pH 7.9), 1 mM EDTA, 0.5 mM NaCl, 0.1% bovine serum albumin, 0.1 mM spermidine and 5% glycerol) and the tested compounds. The mix was incubated for 15 min at 37 °C. Then, the reaction was initiated by addition of recombinant hTopo I (2 U), incubated at 37 °C for 1 h and terminated by the addition of 5× stop buffer (5% sarkosyl, 25% glycerol, 0.125% bromophenol blue). The aqueous phase was loaded onto a 1% agarose gel containing 1× TAE buffer (diluted from50× buffer containing 242 g Tris base, 57.1 mL glacial acetic acid and 100 mL of 0.5 M EDTA) without ethidium bromide (EB). […]
row,Structure (SMILES),Inhibition of hTopo I supercoiling relaxing activity
1,Cc1ccc(C)c2c1c1cc(B(O)O)ccc1n2C(=O)OC(C)(C)C [Compound 3],totally inhibited
2,Cc1ccc(C)c2c1c1cc(O)ccc1n2C(=O)OC(C)(C)C [Compound 4],totally inhibited
